According to patent US8563743B2, “Benzofuranone compound and pharmaceutical composition containing same” (Fuso Pharmaceutical Industries, Ltd., priority 2010, dated 2013):
Where a name gives a salt, the structure may show the parent alone.

Assays:
[1] = test system: human breast cancer cell (MCF-7); experiment: cells; conditions: for TGI MCF-7: 72 hours culture with compound, maximum concentration 10 μM; for GI50 / CC50: Homo sapiens, MCF7, 72 h; for GI50: read-out: GI50 MCF-7; for CC50: read-out: LC50 MCF-7
Procedure: (§1) As positive control substances, 5-fluorouracil (5-FU, Sigma) and gemcitabine hydrochloride (Gemzar, GEM, Eli Lilly Japan K.K.), were tested. The experiment was carried out in accordance with the method carried out by the Commission of Screening for Carcinostatic Agents of the Ministry of Education, Culture, Sports, Science and Technology. With respect to each of experiment groups, the experiment was repeated nine times and an average value was determined. Specifically, each type of cultured cells were seeded into a 96-well microplate at a density of 1×10^4 cells per well (5.0×10^4 cells/mL, 200 μL), the cells were cultured under 5% CO2 at 37° C. for 24 hours, the culture medium was replaced by a culture medium containing the compound (180 μL, the maximum dose of each of the compound was 10 μM, and the final concentration of dimethylsulfoxide (DMSO, Sigma) was adjusted to 0.25%), and the culture was further continued under the same conditions for 72 hours. In this experiment, Dulbecco's modified Eagle's medium (D-MEM, Wako Pure Chemical Industries, Ltd.) was used for the culture of MIA PaCa-2, and Eagle's minimal essential medium (E-MEM, Wako Pure Chemical Industries, Ltd.) was used for the culture of MCF-7.
(§2) After the completion of the culture, alamar blue (20 μL) (Iwaki Glass Co., Ltd.) was added to the culture medium, the resultant mixture was agitated, the culture was then carried out for 3 hours, and fluorescence values were determined on a fluorescence plate reader (Spectra Max M5 (Nihon Molecular Devices Corporation)) at an excitation wavelength of 530 nm and a fluorescence wavelength of 590 nm.
(§3) The fluorescence values immediately before the action of each of the compounds were determined by replacing the culture medium, adding alamar blue (20 μL) immediately after the replacement of the culture medium, agitating the resultant mixture, carrying out the culture for 3 hours, and measuring the fluorescence values on a fluorescence plate reader.
(§4) On the basis of the measurement values thus obtained, Tz (the state of the cultured cells immediately before the action of the compound), GI50 (the concentration of the compound required for inhibiting the proliferation of the cultured cells by 50% relative to the proliferation of the cultured cells in the presence of […]), TGI (the concentration of the compound required for inhibiting the proliferation of the cells in such a manner that the number of the cells became the same as Tz), LC50 (the concentration of the compound required for decreasing the number of the cells to 50% of Tz) and the proliferation rate (the rate of the proliferation of the cultured cells from the time pint of the action of the compound until the time point of the measurement of fluorescence) were determined.
(§5) Due to the problem of the solubility of each of the compounds, the maximum concentration was set at 10 μM.

[2] = test system: human pancreatic cancer cell (MIA PaCa-2); experiment: cells; conditions: for TGI MIA PaCa-2: 72 hours culture with compound, maximum concentration 10 μM; for GI50: read-out: GI50 MIA PaCa-2; for proliferation rate: MIA PaCa-2, at a concentration of 10 μM
Procedure: as §1, §2, §3, §4, §5

With `O=c1[nH]cc(F)c(=O)[nH]1` [5-FU, 5-fluorouracil] the “cytotoxic or cell proliferation inhibition activity” value [1] was “did not exhibit either of these activities”, the “TGI MCF-7” value [1] was greater than 10 µM and the GI50 [1] was greater than 10 µM. For the same compound, the CC50 [1] was greater than 10 µM, the “cytotoxic or cell proliferation inhibition activity” value [2] was “did not exhibit either of these activities” and the “TGI MIA PaCa-2” value [2] was greater than 10 µM. The GI50 ([2]; Homo sapiens, MIA PaCa-2, 72 h) was greater than 10 µM.

For `Nc1ccn([C@@H]2O[C@H](CO)[C@@H](O)C2(F)F)c(=O)n1` [GEM, gemcitabine hydrochloride], the “cytotoxic or cell proliferation inhibition activity” value [1] was “did not exhibit either of these activities”, the “TGI MCF-7” value [1] was greater than 10 µM and the GI50 [1] was greater than 10 µM. For the same compound, the CC50 [1] was greater than 10 µM, the “concentration from which no increase in the activity was observed” value ([1]; MCF-7) was no less than 0.05 µM and the proliferation rate ([1]; MCF-7, at a concentration of 10 ηM) was 59.52%. For the same compound, the “cytotoxic or cell proliferation inhibition activity” value [2] was “exhibited a cytotoxic or cell proliferation inhibition activity”, the “TGI MIA PaCa-2” value [2] was greater than 10 µM and the GI50 ([2]; Homo sapiens, MIA PaCa-2, 72 h) was 0.035 µM. For the same compound, the “concentration from which no increase in the activity was observed” value ([2]; MIA PaCa-2) was no less than 0.05 µM and the proliferation rate [2] was 26.47%.

For `COCCNS(=O)(=O)c1ccc(OC)c2oc(-c3csc(NC(=O)CCl)n3)cc12` [MU-1497, 2-chloro-N-{4-[7-methoxy-4-(2-methoxyethylsulfamoyl)-benzofuran-2-yl]-thiazol-2-yl}-acetamide], the “concentration at which a cytotoxic or cell proliferation inhibition activity was exhibited” value [1] was no less than 5.0 µM, the “TGI MCF-7” value [1] was 4.70 µM and the GI50 [1] was 3.82 µM. The CC50 [1] was 5.81 µM, the proliferation rate ([1]; MCF-7, at a concentration of 10 μM (the maximum dose)) was −99.71% and the “concentration at which a cytotoxic or cell proliferation inhibition activity was exhibited” value [2] was no less than 2.5 µM. The “TGI MIA PaCa-2” value [2] was 6.15 µM, the GI50 ([2]; Homo sapiens, MIA PaCa-2, 72 h) was 4.22 µM and the CC50 ([2]; Homo sapiens, MIA PaCa-2, 72 h, read-out: LC50 MIA PaCa-2) was 8.07 µM. The proliferation rate [2] was −95.39%.
